Assay: Inhibition of the ability of TGF-β to promote transcription of a Type I collagen gene, COL-Luc luciferase reporter in normal human fetal skin fibroblasts
Format: cell-based
Conditions: final concentration 1 μM; TGF-β added after one hour; 40 hours; normal human fetal skin fibroblast transfected with COL-Luc and pCMV-β-gal; read-out: Inhibition percentage
Experimental: 1×10^8 cells of a normal human fetal skin fibroblast (Clontech, catalogue No. CC-2509) were cultured at 37° C. overnight under 5% CO2 atmosphere. After the cultured cells were washed with a sodium phosphate buffer (hereinafter, referred to as PBS) twice, 3 ml of PBS was added thereto and the cells were scraped away the wall of a vessel using a cell scraper (Nalgen, catalogue No. 179693). The scraped cells were collected by centrifugation (1,500 rpm, 4° C., 15 min), and these were suspended in 20 ml of PBS and centrifuged again. To the resulting precipitates were added 11 ml of Solution 2 and 4.8 μl of pronase of DNA Extraction Kit (Stratagene, catalogue No. 200600). After shaken at 60° C. for 1 hour, the resulting mixture was allowed to stand in ice for 10 minutes. Then, 4 ml of Solution 3 of the kit was added to the mixture. After mixed, the mixture was allowed to stand in ice for 5 minutes and then centrifuged (3,000 rpm, 4° C., 15 min) to recover a supernatant. To the recovered supernatant was added 2 μl of RNase per 1 ml of the supernatant and the mixture was allowed to stand at 37° C. for 15 minutes. To the mixture was added 2-fold volume of ethanol. After mixed, a white thread-like substance (genomic DNA) appeared and the substance was recovered. The recovered genomic DNA was washed with 70% ethanol and then air-dried. The air-dried genomic DNA was dissolved in 500 μl of 10 mM Tris-HCl, 1 mM EDTA (pH 8.0) (hereinafter, referred to as TE).
The resulting genomic DNA solution (the amount equivalent to 1 μg of genomic DNA), each 1 μl ([…]) of an oligonucleotide consisting of the nucleotide sequence represented by SEQ ID No:1 and an oligonucleotide consisting of the nucleotide sequence represented by SEQ ID No: 2, 29 μL of distilled water, 5 μl of the buffer attached to TaKaRa LA Taq (TAKARA SHUZO, catalogue No. RR002A), 5 μL of a Mg^2+ solution, 5 μL of a dNTP mixture and 0.5 μl of TaKaRa LA Taq (TAKARA SHUZO, catalogue No. RR002A) were mixed. After the resulting mixed solution was incubated at 94° C. for 5 minutes, the mixed solution was subjected to 30 cycles, in which one cycle consists of incubation at 94° C. for 1 minute, at 60° C. for 1 minute and then at 72° C. for 1 minute. The mixed solution was electrophoresed on a 2% agarose gel to recover about 0.5 kb of a DNA. The recovered DNA was treated with phenol/chloroform and then precipitated with ethanol to recover the DNA. The resulting DNA was dissolved in ultrapure water. To this solution were added 2.5 μl of NheI and 2.5 μl of HindIII, and then incubated at 37° C. for 3 hours. Then, the solution was electrophoresed on a 2% agarose gel to recover […] of a DNA. The recovered DNA was precipitated with ethanol to recover again the DNA (hereinafter, referred to as the collagen promoter DNA). […]
`COC1=C(C(=O)C=Cc2ccc(OC(F)(F)F)c(Cl)c2)COC(C)=C1` [Compound No. (2a-17), 4-methoxy-3-[3-[3-chloro-4-(trifluoromethoxy)phenyl]-1-oxo-2-propenyl]-6-methyl-2H-pyran] gave an inhibition at 1 µM of at least 70%. In the case of `COc1c(C(=O)C=Cc2ccc(OC(F)(F)F)c(Cl)c2)c(=O)oc2ccccc12` [Compound No. (2c-17), 4-methoxy-3-[3-[3-chloro-4-(trifluoromethoxy)phenyl]-1-oxo-2-propenyl]-2H-1-benzopyran-2-one], the inhibition at 1 µM is reported as at least 70%. For `Cc1cc(O)c(C(=O)C=Cc2ccc(OC(F)(F)F)c(Cl)c2)c(=O)[nH]1` [Compound No. (3a-32), 4-hydroxy-3-[3-[3-chloro-4-(trifluoromethoxy)phenyl]-1-oxo-2-propenyl]-6-methyl-2(1H)-pyridinone], the inhibition at 1 µM was at least 70%. Work on `O=C(C=Cc1ccc(OC(F)(F)F)c(Cl)c1)c1c(O)c2ccccc2[nH]c1=O` [Compound No. (3c-32), 4-hydroxy-3-[3-[3-chloro-4-(trifluoromethoxy)phenyl]-1-oxo-2-propenyl]-2(1H)-quinolinone] yielded an inhibition at 1 µM of at least 70%.
